In paper PMC11842588, “A first-in-class selective inhibitor of ERK1/2 and ERK5 overcomes drug resistance with a single-molecule strategy” (Signal Transduction and Targeted Therapy, 2025):

Key:
ERK1 = ERK1 (Homo sapiens, UniProt P27361); assay: ADP-Glo kinase assay; assay type: biochemical
Method: (§1) The full-length human ERK1 or ERK2 with His-tag was cloned into a pET28a vector. hERK1/2 were expressed in Escherichia coli BL21(DE3), and then were purified using sequential Ni-NTA and Superdex 200 column steps. The SEC purified sample was then concentrated to 10 mg/ml and stored at −80 °C with buffer containing 20 mM HEPES pH 7.5, 150 mM NaCl. ERK5 (residues 48–395) containing His and GST tags was cloned into the pFastBac vector, and the recombinant plasmid was extracted. The recombinant plasmid was transformed into the DH10bac strain, and monoclonal was selected for culture. The recombinant Bacmid was then extracted according to the instructions of the Baculovirus Shuttle Vector Bacmid Mini Preparation Kit (Beyotime) and validated by PCR. 1 × 10^6/well Sf9 cells were counted for transfection and then amplified to obtain P3 ERK5 recombinant baculovirus. It was added to 2 × 10^6/mL Sf9 cells and incubated at 27 °C for 72 h on a shaker to express ERK5. Cells were lysed and supernatant was collected on a Ni-NTA for purification, and a 250 mM imidazole eluate was collected. Next, digestion by TEV protease was performed overnight while dialysis was performed in approximately 1000 mL of imidazole-free buffer. The digested ERK5 protein was sequentially purified on the Ni-NTA and GST-tag Purification Resin, followed by size exclusion chromatography on a Superdex 75 column. ERK5 protein was collected and concentrated to 12 mg/ml and stored at −80 °C in buffer containing 50 mM HEPES pH 8.0, 200 mM NaCl, 10% (v/v) glycerol.
(§2) ERK1/2/5 kinase activity assay was conducted using ADP-Glo™ Kinase Assay. 2× ATP solution and 2× kinase & Metal solution were prepared using assay buffer were prepared using assay buffer containing 50 mM Hepes pH 7.5, 10 mM MgCl2; 0.01% Brij35, 1 mM EGTA, 2 mM DTT. Transfer 40 nL compounds to 384 assay plate. Add 2 μL of 2× kinase & Metal solution were mixed and incubated in a 384-assay plate for 10 min at 25 °C. 2 μL of 2×ATP solution was added and incubated at 25 °C for 60 min. And then, each well was supplemented with 4 µL of ADP-Glo^TM reagent and incubated at 25 °C for 40 min. Subsequently, 8 µL of Kinase Detection Reagent was added and incubated at 25 °C for 40 min. Finally, the luminescence signals were recorded. The IC50 values were calculated using GraphPad Prism 9.5 software.

ERK2 = ERK2 (Homo sapiens, UniProt P28482); assay: ADP-Glo kinase assay; assay type: biochemical
Method: as §1, §2

ERK5 = ERK5 (Homo sapiens, UniProt Q13164); assay: ADP-Glo kinase assay; assay type: biochemical
Method: as §1, §2

MDA-MB-231 cells = assay: MTT cell viability assay; assay type: cell-based
Method: (§3) MDA-MB-468 and MDA-MB-436 cells were cultured in Leibovitz’s L-15 medium supplemented with 10% fetal bovine serum. […] All of the cells were cultured at 37 °C in a humidified atmosphere containing 5% CO2.
(§4) Cancer cells were seeded in a density in 96-well plates (2 × 10^3 cells per well). After incubation for 24 h, cancer cells were treated with compounds (0–20 μM) for 72 h.

MDA-MB-468 cells = assay: MTT cell viability assay; assay type: cell-based
Method: as §3, §4

MDA-MB-231 xenograft = MDA-MB-231 xenograft tumor growth inhibition; assay type: in vivo, nude mice (BALB/c-nu); settings: 50 mg/kg (each drug), intragastric once daily, 16 days, by tumor weight
Method: All procedures were performed in accordance with the Laboratory Animals Welfare Act, the Guide for the Care and Use of Laboratory Animals and the Guidelines and Policies. The rodent experiment was approved by IACUC (Institutional Animal Care and Use Committee) in the Experimental Animal Ethics Committee of West China Hospital (Approval No. 2021672A). 48 female nude mice (BALB/c-nu, 5 weeks, 15–18 g, purchased from Beijing HFK Bio-Technology Co., LTD) were acclimatized for one week in an SPF-grade animal facility (ventilated, 20–25 °C, 50–60% humidity). […] When the tumor volume reached approximately 100 mm^3 (V = L × W^2/2), the mice were randomly divided into six groups (n = 8 per group): (1) Control group (normal saline); (2) 25 mg/kg SKLB-D18-treated group; (3) 50 mg/kg SKLB-D18-treated group; (4) 50 mg/kg BVD-523-treated group; (5) 50 mg/kg XMD8-92-treated group; (6) BVD-523 (50 mg/kg) and XMD8-92 (50 mg/kg) combined treatment group. Drugs were freshly prepared with 5% DMSO, 10% Solutol HS-15, and 85% normal saline on the day of administration. Intragastric administration occurred once daily at the same time for 16 consecutive days. And the body weight and tumor volume of mice were measured every three days. After the administration period, all nude mice were euthanized by cervical dislocation the next day. Tumors and vital organs (heart, liver, spleen, lung, kidney) were dissected, and tumors were weighed, then immediately fixed in 4% paraformaldehyde or stored in −80 °C.

ERK5, sequence (Q13164 whole entry): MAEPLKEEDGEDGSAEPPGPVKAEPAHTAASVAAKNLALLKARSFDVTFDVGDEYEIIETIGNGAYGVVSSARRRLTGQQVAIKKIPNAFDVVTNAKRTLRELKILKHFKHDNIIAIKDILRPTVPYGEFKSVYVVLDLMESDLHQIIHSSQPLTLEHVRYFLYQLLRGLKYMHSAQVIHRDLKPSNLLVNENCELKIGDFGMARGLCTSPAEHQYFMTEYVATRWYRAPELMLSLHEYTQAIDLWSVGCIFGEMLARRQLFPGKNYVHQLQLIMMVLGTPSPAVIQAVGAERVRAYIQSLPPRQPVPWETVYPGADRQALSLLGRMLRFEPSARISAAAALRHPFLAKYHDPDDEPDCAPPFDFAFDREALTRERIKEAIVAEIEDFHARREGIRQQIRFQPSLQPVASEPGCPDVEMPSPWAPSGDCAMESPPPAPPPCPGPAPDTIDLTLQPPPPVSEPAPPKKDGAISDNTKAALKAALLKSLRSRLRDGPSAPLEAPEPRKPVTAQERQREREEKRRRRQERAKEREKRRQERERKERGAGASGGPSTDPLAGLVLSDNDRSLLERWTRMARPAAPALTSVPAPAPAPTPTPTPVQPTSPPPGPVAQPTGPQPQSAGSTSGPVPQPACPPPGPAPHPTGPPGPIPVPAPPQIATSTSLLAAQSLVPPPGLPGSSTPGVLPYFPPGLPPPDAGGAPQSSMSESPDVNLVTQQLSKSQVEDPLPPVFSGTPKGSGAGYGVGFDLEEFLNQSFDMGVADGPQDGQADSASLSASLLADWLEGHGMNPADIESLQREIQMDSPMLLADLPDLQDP
ERK1, sequence (P27361 whole entry, the tested form may be a part): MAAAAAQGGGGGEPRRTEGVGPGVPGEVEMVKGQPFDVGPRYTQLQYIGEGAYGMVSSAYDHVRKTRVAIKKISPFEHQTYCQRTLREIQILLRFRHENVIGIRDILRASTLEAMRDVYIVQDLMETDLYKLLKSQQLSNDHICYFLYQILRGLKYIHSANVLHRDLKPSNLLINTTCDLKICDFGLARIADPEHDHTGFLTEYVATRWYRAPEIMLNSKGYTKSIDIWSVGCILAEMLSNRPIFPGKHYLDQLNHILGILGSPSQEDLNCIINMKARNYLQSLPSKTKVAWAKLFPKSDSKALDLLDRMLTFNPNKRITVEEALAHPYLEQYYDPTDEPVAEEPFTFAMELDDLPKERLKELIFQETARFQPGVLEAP
ERK2, sequence (P28482 whole entry): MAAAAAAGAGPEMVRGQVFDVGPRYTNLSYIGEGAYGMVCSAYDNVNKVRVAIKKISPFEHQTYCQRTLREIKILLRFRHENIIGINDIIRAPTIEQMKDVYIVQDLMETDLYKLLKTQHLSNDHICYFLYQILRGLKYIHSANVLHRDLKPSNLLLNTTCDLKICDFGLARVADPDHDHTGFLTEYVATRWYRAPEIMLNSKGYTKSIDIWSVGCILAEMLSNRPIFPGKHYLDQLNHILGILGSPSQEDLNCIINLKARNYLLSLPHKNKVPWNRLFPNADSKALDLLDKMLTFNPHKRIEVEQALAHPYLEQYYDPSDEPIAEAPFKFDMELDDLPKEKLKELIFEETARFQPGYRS

SMILES | Enzyme inhibitory activity (500 nM, %) ERK1 (ERK1) [%] | Enzyme inhibitory activity (500 nM, %) ERK2 (ERK2) [%] | Enzyme inhibitory activity (500 nM, %) ERK5 (ERK5) [%] | inhibition at 0.5 µM (ERK1; read-out: Enzyme inhibitory activity (500 nM, %) ERK1) [%] | inhibition at 0.5 µM (ERK2; read-out: Enzyme inhibitory activity (500 nM, %) ERK2) [%] | inhibition at 0.5 µM (ERK5; read-out: Enzyme inhibitory activity (500 nM, %) ERK5) [%] | IC50 (MDA-MB-231 cells; Homo sapiens, MDA-MB-231, read-out: IC50 MDA-MB-231, MTT, 72 h) [µM] | IC50 (MDA-MB-468 cells; Homo sapiens, MDA-MB-468, MTT, 72 h) [µM] | Anti-proliferative activity (10 μM, %) MDA-MB-231 (MDA-MB-231 cells) [%] | Anti-proliferative activity (10 μM, %) MDA-MB-468 (MDA-MB-468 cells) [%] | tumor inhibition rate (MDA-MB-231 xenograft) [%]
COc1ccc(NC(=O)c2cc(-c3nc(Nc4c(C)nn(C)c4C)ncc3Cl)cs2)cc1 [9d, 4-(5-chloro-2-((1,3,5-trimethyl-1H-pyrazol-4-yl)amino)pyrimidin-4-yl)-N-(4-methoxyphenyl)thio-phene-2-carboxamide] | 45.29 ± 1.30 | 43.22 ± 0.23 | 23.12 ± 3.21 |  |  |  |  |  | 7.54 ± 1.23 | 24.33 ± 0.84 | 
COc1ccc(NC(=O)c2cc(-c3nc(Nc4ccccc4)ncc3Cl)cs2)cc1 [9e] | 77.32 ± 2.34 | 76.45 ± 0.01 | 45.32 ± 0.09 |  |  |  |  |  | 23.33 ± 0.56 | 25.10 ± 1.53 | 
COc1ccc(NC(=O)c2cc(-c3nc(Nc4cccc(N(C)C)c4)ncc3Cl)cs2)cc1 [9h] | 77.02 ± 3.21 | 78.90 ± 2.31 | 65.54 ± 0.88 |  |  |  |  |  | 11.21 ± 0.47 | 20.15 ± 0.77 | 
CN(C)Cc1cccc(Nc2ncc(Cl)c(-c3csc(C(=O)Nc4ccncn4)c3)n2)c1 [18i] | 2.13 ± 1.56 | -1.29 ± 0.02 | 71.14 ± 0.43 |  |  |  |  |  | 41.35 ± 1.20 | 30.29 ± 0.83 | 
CCOc1cc(N2CCC(O)CC2)ccc1Nc1ncc2c(n1)N(C)c1ccccc1C(=O)N2C [XMD8-92] |  |  |  |  |  |  |  |  |  |  | 7.75

The next lines start with results.

Enzyme inhibitory activity (500 nM, %) ERK1 (ERK1) [%] | Enzyme inhibitory activity (500 nM, %) ERK2 (ERK2) [%] | Enzyme inhibitory activity (500 nM, %) ERK5 (ERK5) [%] | inhibition at 0.5 µM (ERK1; read-out: Enzyme inhibitory activity (500 nM, %) ERK1) [%] | inhibition at 0.5 µM (ERK2; read-out: Enzyme inhibitory activity (500 nM, %) ERK2) [%] | inhibition at 0.5 µM (ERK5; read-out: Enzyme inhibitory activity (500 nM, %) ERK5) [%] | IC50 (MDA-MB-231 cells; Homo sapiens, MDA-MB-231, read-out: IC50 MDA-MB-231, MTT, 72 h) [µM] | IC50 (MDA-MB-468 cells; Homo sapiens, MDA-MB-468, MTT, 72 h) [µM] | SMILES | Anti-proliferative activity (10 μM, %) MDA-MB-231 (MDA-MB-231 cells) [%] | Anti-proliferative activity (10 μM, %) MDA-MB-468 (MDA-MB-468 cells) [%] | tumor inhibition rate (MDA-MB-231 xenograft) [%]
 |  |  | 7.98 ± 0.6 | 5.97 ± 1.02 | 81.8 ± 2.1 |  |  | Cc1cc(NC(=O)c2cc(-c3nc(Nc4cccc(CN(C)C)c4)ncc3Cl)cs2)ccn1 [18j, 4-(5-chloro-2-((3-((dimethylamino)methyl)phenyl)amino)pyrimidin-4-yl)-N-(2-methylpyridin-4-yl)thiophene-2-carboxamide] | 39.25 ± 0.21 | 59.17 ± 2.12 | 
45.23 ± 2.12 | 43.61 ± 1.45 | 86.64 ± 0.89 |  |  |  |  |  | CN(C)Cc1cccc(Nc2ncc(Cl)c(-c3csc(C(=O)Nc4ccnn4C)c3)n2)c1 [18k] | 39.77 ± 0.31 | -3.93 ± 1.21 | 
90.27 ± 1.78 | 91.03 ± 1.23 | 79.74 ± 0.07 |  |  |  |  |  | CN(C)Cc1cccc(Nc2ncc(Cl)c(-c3csc(C(=O)NN4CCN(C)CC4)c3)n2)c1 [18n] | 54.82 ± 1.21 | 86.37 ± 0.43 | 
 |  |  |  |  |  | 6.47 ± 0.19 | 5.26 ± 0.66 | CC(C)Nc1cc(-c2c[nH]c(C(=O)N[C@H](CO)c3cccc(Cl)c3)c2)c(Cl)cn1 [BVD-523, reference compound] |  |  | 36.01
